# Active and inactive are the calls of the source. The rule behind the calls is not given here.
# Key:
# [1] = system: RAW264.7; assay: Inhibition of RANKL-induced NFkappaB signaling pathway in mouse RAW264.7 cells assessed as reduction in IkappaB alpha degradation at 10 uM preincubated for 4 hrs followed by RANKL stimulation for 10 mins and measured by Western blot analysis; type: cell-based; conditions: time 250.0 min
# [2] = Toxicity in OVX-induced bone loss C57BL/6 mouse model assessed as effect on serum TG level at 10 mg/kg, po QD for 4 weeks; type: organism-based; conditions: in vivo, 672 h, dose 10 mg/kg/day
# [3] = Toxicity in OVX-induced bone loss C57BL/6 mouse model assessed as effect on spleen morphology at 10 mg/kg, po QD for 4 weeks; type: organism-based; conditions: in vivo, 672 h, dose 10 mg/kg/day
# [4] = Toxicity in OVX-induced bone loss C57BL/6 mouse model assessed as effect on serum CK level at 10 mg/kg, po QD for 4 weeks; type: organism-based; conditions: in vivo, 672 h, dose 10 mg/kg/day
# [5] = Toxicity in OVX-induced bone loss C57BL/6 mouse model assessed as effect on lung morphology at 10 mg/kg, po QD for 4 weeks; type: organism-based; conditions: in vivo, 672 h, dose 10 mg/kg/day
# [6] = Toxicity in OVX-induced bone loss C57BL/6 mouse model assessed as effect on kidney morphology at 10 mg/kg, po QD for 4 weeks; type: organism-based; conditions: in vivo, 672 h
# [7] = system: Mus musculus; assay: Antiosteoporotic activity against OVX-induced bone loss C57BL/6 mouse model assessed as decrease in osteocalcin secretion in serum at 10 mg/kg, po QD for 4 weeks; type: functional, organism-based; conditions: dose 10.0 mg/kg/day
# [8] = system: BMMC; assay: Downregulation of osteoclastogenesis-associated gene expression in C57BL/6 mouse BMM cells assessed as inhibition of M-CSF/RANKL-induced CTSK expression at 5 uM after 5 days by qRT-PCR analysis; type: functional, cell-based; conditions: time 5.0 day
# [9] = system: Mus musculus; assay: Antiosteoporotic activity against OVX-induced bone loss C57BL/6 mouse model assessed as increase in trabecular number in femoral metaphysis at 10 mg/kg, po QD for 4 weeks; type: functional, organism-based; conditions: dose 10.0 mg/kg/day
# [10] = Toxicity in OVX-induced bone loss C57BL/6 mouse model assessed as effect on thymus morphology at 10 mg/kg, po QD for 4 weeks; type: organism-based; conditions: in vivo, 672 h, dose 10 mg/kg/day
# [11] = system: BMMC; assay: Downregulation of osteoclastogenesis-associated gene expression in C57BL/6 mouse BMM cells assessed as inhibition of M-CSF/RANKL-induced NFATc1 expression at 5 uM after 5 days by qRT-PCR analysis; type: functional, cell-based; conditions: time 5.0 day
# [12] = system: Mus musculus; assay: Antiosteoporotic activity against OVX-induced bone loss C57BL/6 mouse model assessed as increase in bone volume/total bone volume in femoral metaphysis at 10 mg/kg, po QD for 4 weeks; type: functional, organism-based; conditions: dose 10.0 mg/kg/day
# [13] = system: BMMC; assay: Downregulation of osteoclastogenesis-associated gene expression in C57BL/6 mouse BMM cells assessed as inhibition of M-CSF/RANKL-induced MMP9 expression at 5 uM after 5 days by qRT-PCR analysis; type: functional, cell-based; conditions: time 5.0 day
# [14] = Toxicity in OVX-induced bone loss C57BL/6 mouse model assessed as effect on serum LDH level at 10 mg/kg, po QD for 4 weeks; type: organism-based; conditions: in vivo, 672 h, dose 10 mg/kg/day
# [15] = system: BMMC; assay: Anti-osteoporosis activity in C57BL/6 mouse BMM cells assessed as inhibition of M-CSF/RANKL-induced bone resorption by measuring suppression of reabsorbing pits formation after 48 hrs by hydroxyapatite assay using Leica inverted microscope; type: functional, cell-based; conditions: dose 1-10 µM
# [16] = system: BMMC; assay: Anti-osteoporosis activity in C57BL/6 mouse BMM cells assessed as inhibition of M-CSF/RANKL-induced osteoclastogenesis by measuring reduction in size and number of osteoclasts incubated for 5 days with media replenishment for every 48 hrs measured by TRAP-staining based analysis; type: functional, cell-based; conditions: dose 0.03-10 µM, time 5.0 day
# [17] = system: RAW264.7; assay: Inhibition of RANKL-induced NFkappaB signaling pathway in mouse RAW264.7 cells assessed as reduction in IkappaB alpha phosphorylation at 10 uM preincubated for 4 hrs followed by RANKL stimulation for 10 mins and measured by Western blot analysis; type: cell-based; conditions: time 250.0 min
# [18] = biological target: MAP kinase p38 (Mus musculus) (UniProt P47811+O08911+Q9WUI1+Q9Z1B7); assay: Inhibition of RANKL-induced p38 phosphorylation in mouse RAW264.7 cells at 1 to 10 uM pretreated for 4 hrs prior to RANKL stimulation for 20 mins by western blot analysis; type: cell-based; conditions: dose 1-10 µM, time 260.0 min
# [19] = system: C3H 10T1/2; assay: Induction of osteoblast differentiation in mouse C3H10T1/2 cells assessed as increase in calcium nodule formation at 1 to 10 uM measured after 14 days by alizarin red staining assay; type: functional, cell-based; conditions: dose 1-10 µM, time 14.0 day
# [20] = Toxicity in OVX-induced bone loss C57BL/6 mouse model assessed as effect on serum ALT level at 10 mg/kg, po QD for 4 weeks; type: organism-based; conditions: in vivo, 672 h, dose 10 mg/kg/day
# [21] = system: BMMC; assay: Anti-osteoporosis activity in C57BL/6 mouse BMM cells assessed as inhibition of M-CSF/RANKL-induced osteoclastogenesis by measuring reduction in multinucleated TRAP+ cells incubated for 5 days with media replenishment for every 48 hrs measured by TRAP-staining based analysis; type: functional, cell-based; conditions: C57BL/6, BMMC
# [22] = system: Mus musculus; assay: Antiosteoporotic activity against OVX-induced bone loss C57BL/6 mouse model assessed as decrease in trabecular spacing in femoral metaphysis at 10 mg/kg, po QD for 4 weeks; type: functional, organism-based; conditions: dose 10.0 mg/kg/day
# [23] = Toxicity in OVX-induced bone loss C57BL/6 mouse model assessed as effect on serum ALP level at 10 mg/kg, po QD for 4 weeks; type: organism-based; conditions: in vivo, 672 h, dose 10 mg/kg/day
# [24] = Toxicity in OVX-induced bone loss C57BL/6 mouse model assessed as effect on serum creatinine level at 10 mg/kg, po QD for 4 weeks; type: organism-based; conditions: in vivo, 672 h, dose 10 mg/kg/day
# [25] = system: Mus musculus; assay: Antiosteoporotic activity against OVX-induced bone loss C57BL/6 mouse model assessed as decrease in PINP secretion in serum at 10 mg/kg, po QD for 4 weeks; type: functional, organism-based; conditions: dose 10.0 mg/kg/day
# [26] = system: BMMC; assay: Anti-osteoporosis activity in C57BL/6 mouse BMM cells assessed as inhibition of M-CSF/RANKL-induced bone resorption at 10 uM after 48 hrs by hydroxyapatite assay using Leica inverted microscope; type: functional; conditions: C57BL/6, BMMC
# [27] = Toxicity in OVX-induced bone loss C57BL/6 mouse model assessed as effect on heart morphology at 10 mg/kg, po QD for 4 weeks; type: organism-based; conditions: in vivo, 672 h
# [28] = Toxicity in OVX-induced bone loss C57BL/6 mouse model assessed as effect on liver morphology at 10 mg/kg, po QD for 4 weeks; type: organism-based; conditions: in vivo, 672 h, dose 10 mg/kg/day
# [29] = biological target: Transcription factor p65 (Mus musculus) (UniProt Q04207); assay: Inhibition of RANKL-induced NFkappaB signaling pathway in mouse RAW264.7 cells assessed as reduction in NFkappaB p65 nuclear translocation at 10 uM preincubated for 4 hrs followed by RANKL stimulation for 10 mins and measured by DAPI staining based immunofluorescence analysis; type: cell-based; conditions: time 250.0 min
# Chain of Transcription factor p65 (Mus musculus) (Q04207 whole entry): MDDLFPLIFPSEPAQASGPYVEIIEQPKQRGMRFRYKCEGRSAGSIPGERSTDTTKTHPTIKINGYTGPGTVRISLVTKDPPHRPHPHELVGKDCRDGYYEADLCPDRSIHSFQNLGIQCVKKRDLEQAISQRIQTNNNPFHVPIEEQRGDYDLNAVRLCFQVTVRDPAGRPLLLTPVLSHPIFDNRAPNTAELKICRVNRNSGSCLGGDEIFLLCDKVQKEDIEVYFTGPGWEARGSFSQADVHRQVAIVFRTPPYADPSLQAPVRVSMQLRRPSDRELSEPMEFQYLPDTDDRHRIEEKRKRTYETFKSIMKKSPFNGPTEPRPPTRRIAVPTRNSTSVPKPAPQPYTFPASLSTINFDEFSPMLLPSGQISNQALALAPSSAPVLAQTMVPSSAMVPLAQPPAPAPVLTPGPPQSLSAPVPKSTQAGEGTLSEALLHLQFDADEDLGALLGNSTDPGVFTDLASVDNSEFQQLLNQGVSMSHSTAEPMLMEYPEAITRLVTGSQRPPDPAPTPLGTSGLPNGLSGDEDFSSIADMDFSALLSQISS
# [30] = system: C3H 10T1/2; assay: Induction of osteoblast differentiation in mouse C3H10T1 /2 cells assessed as increase in ALP expression at 1 to 10 uM measured after 7 days by ALP staining based assay; type: functional, cell-based; conditions: dose 1-10 µM, time 7.0 day
# [31] = Toxicity in OVX-induced bone loss C57BL/6 mouse model assessed as effect on serum GLU level at 10 mg/kg, po QD for 4 weeks; type: organism-based; conditions: in vivo, 672 h, dose 10 mg/kg/day
# [32] = system: RAW264.7; assay: Inhibition of RANKL-induced ERK phosphorylation in mouse RAW264.7 cells at 1 to 10 uM pretreated for 4 hrs prior to RANKL stimulation for 20 mins by western blot analysis; type: cell-based; conditions: dose 1-10 µM, time 260.0 min
smiles,measurement,setting,value
C=C1CC[C@@H]2[C@](C)(CNCc3ccc(F)cc3)[C@H](O)CC[C@@]2(C)[C@@H]1/C=C/C1=CCOC1=O,inhibition,[1],Active
same,Activity,[2],Non-Toxic
same,Activity,[3],Non-Toxic
same,Activity,[4],Non-Toxic
same,Activity,[5],Non-Toxic
same,Activity,[6],Non-Toxic
same,Activity,[7],Active
same,inhibition,[8],Active
same,Activity,[9],Active
same,Activity,[10],Non-Toxic
same,inhibition,[11],Active
same,Activity,[12],Active
same,inhibition,[13],Active
same,Activity,[14],Non-Toxic
same,Activity,[15],Dose-Dependent Effect
same,Activity,[16],Dose-Dependent Effect
same,inhibition,[17],Active
same,inhibition,[18],inactive
same,Activity,[19],inactive
same,Activity,[20],Non-Toxic
same,IC50,[21],0.35 µM
same,Activity,[22],Active
same,Activity,[23],Non-Toxic
same,Activity,[24],Non-Toxic
same,Activity,[25],Active
same,inhibition at 10 µM,[26],100%
same,Activity,[27],Non-Toxic
same,Activity,[28],Non-Toxic
same,inhibition,[29],Active
same,Activity,[30],inactive
same,Activity,[31],Non-Toxic
same,inhibition,[32],inactive

# — ChEMBL document CHEMBL4819024, “Synthesis and evaluation of andrographolide derivatives as potent anti-osteoporosis agents in vitro and in vivo” (Eur J Med Chem, 2021)
